Experimental data as given in patent US5900434A, “Method for inhibiting the production of interleukin-1 or tumor necrosis factor-α by administering acanthoic acid” (Korea Institute of Science and Technology, priority 1994, dated 1999).

Columns and labels:
[1] = tested on: experimental silicosis in rat; test: Experimental silicosis in rat, lung histology; format: in vivo, Sprague-Dawley rat; conditions: silica 50 mg intrabronchial, 10 mg orally twice a week, 12 to 18 weeks, FIG. 9
Procedure: For the purpose of confirming the in vivo anti-fibrogenic activity of acanthoic acid, an experimental silicosis model was established and the effect of acanthoic acid on the silicosis model when administered thereto was determined.
Silica was refined by removing any contaminant, e.g., Fe2 O3, therefrom in accordance with the method of Lugano as described in Am. J. Pathol., 109, 27-36(1982) as follows. Silica powder(Sigma, St. Louis, Mo.; the content of the particles having a diameter of 5 μm is at least 80%) was suspended in 1N HCl and the suspension was heated and washed with distilled water. The resultant was sterilized by dry heating at 200° C. for 2 hours and then used in the following experiment.
A 7 to 8 week-old male Sprague-Dawley rat and a 5-week old female ICR mouse were anesthetized by an intraperitoneal injection of 2 to 5 mg of ketamine chloride. The rat was injected into their bronchia with 50 mg of silica dissolved in 0.5 ml of sterilized PBS and the mouse was injected with 2 mg of silica dissolved in 0.1 ml of sterilized PBS, by using an 1 ml syringe. From the next day after the injection of silica, 10 mg of acanthoic acid was administered orally to the rat and mouse twice a week for a period ranging from 12 to 18 weeks. […]

rat = conditions: cited from earlier work
NIH3T3 fibroblasts = test: Inhibition of proliferation of NIH3T3 fibroblasts (3H-thymidine); format: cell-based; conditions: dialyzate of monocytes/macrophages treated with 10 μg/ml acanthoic acid and silica; 5 days; FIG. 6
Procedure: NIH3T3 fibroblast(ATCC CRL 1658) was cultured in RPMI 1640 medium containing 10% FBS under the same conditions as described above. Acanthoic acid was added in various concentrations to 5×10^5 /ml of cells obtained in the above procedures, and the cells were precultured at 37° C. for 1 hour in 5% CO2 incubator. Then, 1 ml each of silica(100 μg/ml) and RPMI 1640 medium containing 2% FBS were added thereto and the cells were cultured under the same conditions as above for 48 hours. The culture supernatant was collected and centrifuged at 1,500 rpm for 10 minutes to remove the cells and silica. The obtained supernatant was dialyzed against PBS and filtered by 0.2 μm filtration syringe, and the filtrate was stored at -20° C. Fibrosis is caused largely by the proliferation of fibroblasts or by the synthesis of collagen. To confirm the effect of acanthoic acid on the proliferation of fibroblasts, human monocytes and macrophages were treated with 10 μg/ml of acanthoic acid and cultured according to the procedure as described in Reference Example 1 (3). The culture was dialyzed against PBS, and 50 μl of the dialyzate was added to the wells of an incubation plate. […] The amount of ^3 H-thymidine incorporated in the cell was determined by employing liquid scintillation counter(FIG. 6). […]

SMILES: C=C[C@@]1(C)CC=C2C(CCC3[C@](C)(C(=O)O)CCC[C@@]23C)C1 (single isomer, unassigned; (-)) [acanthoic acid, (-)-pimara-9(11),15-diene-19-oic acid]
- lung histology, granuloma and fibrosis (experimental silicosis) [1]: only small-sized granulomas which is not coalesce with each other and a slight fibrosis are observed
- minimum lethal dose(MLD) (rat): 1000 mg/kg
- proliferation of fibroblasts (NIH3T3 fibroblasts): inhibited significantly
